In patent US9150788B2, “Non-amphiphile-based water-in-water emulsion and uses thereof” (Syracuse University, priority 2007, dated 2015):

Legend:
E. coli biofilm = E. coli biofilm formation on stainless steel surface; type: cell-based; settings: 60 μg/mL, non-toxic concentration
E. coli = E. coli cell growth (toxicity); type: cell-based; settings: 60 μg/mL
AI-2 synthesis [1] = assay: AI-2 synthesis in E. coli, bioluminescence assay with reporter strain Vibrio harveyi BB 170; type: cell-based; settings: 60 μg/mL
Method: Biofilm formation relies on bacteria's secretion and sensing (quorum sensing) of signal molecules (called auto-inducer). […] Furanone #8 and 9 (60 μg/mL) inhibited AI-2 synthesis in E. coli 12.5- and 3.5-fold. […] 96: p. 1639-1644).

AI-2 synthesis [2] = settings: 100 μg/mL; cited from earlier work

Row | SMILES | repression of E. coli biofilm formation, % of the surface coverage (E. coli biofilm) [%] | E. coli cell growth (E. coli) | inhibition of AI-2 synthesis in E. coli (AI-2 synthesis [1]) [fold] | inhibition of AI-2 synthesis (AI-2 synthesis [2]) [fold]
1 | O=C1O/C(=C/Br)C(Br)=C1CBr [furanone #10] | 91 | cell growth not affected | – | –
2 | CC1=CC(=C(Br)Br)OC1=O [furanone #9] | 86 | cell growth not affected | 3.5 | –
3 | CCCCC1=C(Br)/C(=C\Br)OC1=O [furanone #1] | – | – | – | 2
